Results published in ChEMBL document CHEMBL4373747 (ACS Med Chem Lett, 2020).

Columns and labels:
[1] = system: MV4-11; test: Cytotoxicity against human MV4-11 cells assessed as reduction in cell viability incubated for 72 hrs by cell-titer blue assay; type: functional, cell-based; conditions: MV4-11, 72 h
[2] = system: MV4-11; test: Induction of apoptosis in human MV4-11 cells assessed as early apoptotic cells at 1 uM incubated for 18 hrs by annexin V FITC and PI based flow cytometry (reference value: 19.46 to 22.17 %); type: functional
[3] = system: MV4-11; test: Induction of apoptosis in human MV4-11 cells assessed as early apoptotic cells at 2 uM incubated for 18 hrs by annexin V FITC and PI based flow cytometry (reference value: 19.46 to 22.17 %); type: functional
[4] = system: MV4-11; test: Induction of apoptosis in human MV4-11 cells assessed as late apoptotic cells at 0.25 uM incubated for 18 hrs by annexin V FITC and PI based flow cytometry (reference value: 9.2 to 9.63 %); type: functional
[5] = system: MV4-11; test: Induction of apoptosis in human MV4-11 cells assessed as late apoptotic cells at 0.5 uM incubated for 18 hrs by annexin V FITC and PI based flow cytometry (reference value: 9.2 to 9.63 %); type: functional
[6] = system: MV4-11; test: Induction of apoptosis in human MV4-11 cells assessed as viable cells at 0.25 uM incubated for 18 hrs by annexin V FITC and PI based flow cytometry (reference value: 53.01 to 53.07 %); type: functional
[7] = system: MV4-11; test: Induction of apoptosis in human MV4-11 cells assessed as early apoptotic cells at 0.25 uM incubated for 18 hrs by annexin V FITC and PI based flow cytometry (reference value: 19.46 to 22.17 %); type: functional
[8] = system: MV4-11; test: Induction of apoptosis in human MV4-11 cells assessed as viable cells at 0.5 uM incubated for 18 hrs by annexin V FITC and PI based flow cytometry (reference value: 53.01 to 53.07 %); type: functional
[9] = system: MV4-11; test: Induction of apoptosis in human MV4-11 cells assessed as early apoptotic cells at 0.5 uM incubated for 18 hrs by annexin V FITC and PI based flow cytometry (reference value: 19.46 to 22.17 %); type: functional
[10] = system: MV4-11; test: Induction of apoptosis in human MV4-11 cells assessed as viable cells at 1 uM incubated for 18 hrs by annexin V FITC and PI based flow cytometry (reference value: 53.01 to 53.07 %); type: functional
[11] = system: MV4-11; test: Induction of apoptosis in human MV4-11 cells assessed as late apoptotic cells at 1 uM incubated for 18 hrs by annexin V FITC and PI based flow cytometry (reference value: 9.2 to 9.63 %); type: functional
[12] = system: MV4-11; test: Induction of apoptosis in human MV4-11 cells assessed as viable cells at 2 uM incubated for 18 hrs by annexin V FITC and PI based flow cytometry (reference value: 53.01 to 53.07 %); type: functional
[13] = system: MV4-11; test: Induction of apoptosis in human MV4-11 cells assessed as late apoptotic cells at 2 uM incubated for 18 hrs by annexin V FITC and PI based flow cytometry (reference value: 9.2 to 9.63 %); type: functional
[14] = system: MV4-11; test: Induction of apoptosis in human MV4-11 cells assessed as viable cells at 4 uM incubated for 18 hrs by annexin V FITC and PI based flow cytometry (reference value: 53.01 to 53.07 %); type: functional
[15] = system: MV4-11; test: Induction of apoptosis in human MV4-11 cells assessed as early apoptotic cells at 4 uM incubated for 18 hrs by annexin V FITC and PI based flow cytometry (reference value: 19.46 to 22.17 %); type: functional
[16] = system: MV4-11; test: Induction of apoptosis in human MV4-11 cells assessed as late apoptotic cells at 4 uM incubated for 18 hrs by annexin V FITC and PI based flow cytometry (reference value: 9.2 to 9.63 %); type: functional
[17] = system: MV4-11; test: Induction of apoptosis in human MV4-11 cells assessed as late apoptotic cells incubated for 18 hrs by annexin V FITC and PI based flow cytometry; type: functional, cell-based
[18] = Oral bioavailability in Balb/c nude mouse at 50 mg/kg measured upto 24 hrs by LC/MS/MS analysis; type: ADME, organism-based; conditions: in vivo

With `O=C(CCCCCCC(=O)Nc1ccccc1)NO` [VORINOSTAT] the IC50 [1] was 310 nM, the Activity [2] was 24.22% and the Activity [3] was 35.72%. The Activity [4] was 12.72%, the Activity [5] was 11.46% and the Activity [6] was 51.83%. The Activity [7] was 19.79%, the Activity [8] was 38.87% and the Activity [9] was 15.37%. The Activity [10] was 28.82%, the Activity [11] was 27.29% and the Activity [12] was 24.13%. The Activity [13] was 30.07%, the Activity [14] was 20.37% and the Activity [15] was 35.44%. The Activity [16] was 26.52%, the Activity [17] was “Dose-dependent effect” and the bioavailability [18] was 8%.
